These results are taken from patent US20260325465A1, “SHP-1 INHIBITORS FOR TREATING CANCER” (MDX MANAGEMENT LLC, priority 2022, published 2026).

Series [1] deals with EL4, B16, MC38, Pan01, KPC and LLC cancer cells. As to the kind of experiment: Phagocytosis by murine bone marrow-derived macrophages. The class given is cell-based. Particulars: 1 μg/ml. How it is done:
FIGS. 2A-2G depict that the inhibition of SHP-1 enhances macrophage proinflammatory response, antigen presentation and phagocytosis in a tumor milieu. FIG. 2A and FIG. 2B depict that SHP-1 activity in macrophages is triggered by proinflammatory stimulation and the extracellular cancer cell ligation (“touching”) of macrophages (green bar in FIG. 2A). […] The SHP-2 inhibitor SHP099 (1 μg/ml) was used in assays. FIG. 2C depicts the inhibition of SHP-1 by TPI-1 dose-dependently recovers IFNγ/LPS-induced activation of STAT1 (p-STAT1) and Erk1/2 (p-Erk1/2) de-activated by SHP-1 (red line). FIG. 2D and FIG. 2E depict that the inhibition of SHP-1 in macrophages by TPI-1 enhances production of proinflammatory cytokines (FIG. 2D) and expression of immunogenic antigen presentation machinery (FIG. 2E) by IFNγ/LPS in a tumor milieu. […] The SHP-1 and SHP-2 inhibitors TPI-1 and SHP099, respectively, was used at 1 μg/ml in assays.

Series [2] concerns STAT1 and Erk1/2. As to the kind of experiment: Pulse inhibition of SHP-1, STAT1 and Erk1/2 phosphorylation (WB). It counts as cell-based, murine. Particulars: IFNγ/LPS, immediately after treatment. On the procedure:
FIGS. 4A and 4B depict that pulse inhibition of SHP-1 transiently enhances proinflammatory signal transduction in macrophages. FIG. 4A: murine macrophages (bone marrow derived macrophages, or “BMDM”) were treated with TPI-1 for 15 min followed by wash to complete removal of TPI-1. At different time points after the TPI-1 treatment, macrophages were stimulated with IFNγ/LPS in the presence of alive cancer cells (1:1 ratio to BMDM) for 20 min prior to cell lysis and assaying SHP-1 activity using pNpp and WB detecting total and phosphorylated STAT1 and Erk1/2. FIG. 4B: the same setting as in FIG. 4A, except that after TPI-1 treatment, TPI-1 in medium was partially removed (50%) or without removal, followed by macrophage stimulation with IFNγ/LPS at different time points.

For series [3], the system named is PTP/SHP-1 activity in KPC tumor. As to the kind of experiment: PTP/SHP-1 activity in KPC tumor in vivo. Also noted: species or system murine. Conditions: with αTLR, cytokines, STING activator, RT, AZA or αPD-L1.
Series [4] concerns KPC pancreatic ductal adenocarcinoma. As to the kind of experiment: TME analysis of KPC pancreatic ductal adenocarcinoma with tumor-focal RT. The class given is in vivo, murine. Conditions: TPI-1 combined RT. The source says:
FIGS. 9A-9C depict that the inhibition of SHP-1 by TPI-1 combined with tumor-focal RT reprogram TME of KPC pancreatic ductal adenocarcinoma towards proinflammatory cancer elimination. FIG. 9A depicts treatment scheme and TME analyses on day 5. The table depicts the percentages of various populations within total CD45+ cells. The bar graph depicts the percentages of various populations within total cells.

Series [5] deals with KPC pancreatic cancer. As to the kind of experiment: Study-3: iSHP-1 with RT and αPD-L1, KPC pancreatic cancer. The class given is in vivo, mice. Particulars: TPI-1 3 or 5 mg/kg i.p. every 3 days, right flank RT 8Gy-4Gy-2Gy, αPD-L1 100 μg. How it is done: FIGS. 13A-13E depict pulse-intermittent SHP-1 inhibition (iSHP-1) combination with RT and αPD-L1 treating pancreatic cancer and lung cancer. FIG. 13A depicts experimental schemes. […] Concomitantly, the tumor at the right flank was treated with 8Gy X-ray radiation (RT). After two days of intermittent period, mice on day 4 were treated with the 2nd cycle TPI-1 (i.p.) of the same dose while RT reduced to 4Gy applied to the right flank tumor. The 3rd cycle (day 7) iSHP-1 combination with RT reduced to 2Gy. Anti-PD-L1 Ab (100 μg, i.p.) was given a day following TPI-1 plus RT. FIG. 13B depicts luminescent image tracing KPC-luc and LLC-luc tumor changes post treatment. FIG. 13C depicts record of tumor volume changes and animal survival up to post-treatment 45 days.
Modalities & Dosing Strategy: i) iSHP-1—TPI-1, 3 or 5 mg/kg, i.p., 1× every 3 days. ii) Tumor focal RT: 8Gy-4Gy-2Gy, given to right flank simultaneously with iSHP-1. iii) αPD-L1: 100 μg, i.p., given a day after iSHP-1 plus RT

Series [6] deals with KPC pancreatic tumor. Nature of the series: Cytokines secreted by KPC tumor pieces treated with TLR agonists with or without TPI-1. Also noted: species or system mice. Conditions: TPI-1 0.4 μM with TLR agonists 1 μg/ml, 18 h. On the procedure:
KPC pancreatic tumor removed from mice were cut into small pieces and treated with 5 different TLR agonists (R848, 3M-852A, Motolimod, Bropirimine or Vesatolimod; 1 μg/ml each) without or with SHP-1 inhibitor TPI-1 (0.4 μM). After 18 h, cytokines secreted into the culture medium were assayed.

A short description of series [7]: Toxicity of pulse-intermittent iSHP-1 in tumor-bearing mice. Conditions: three cycles of pulse-intermittent iSHP-1 with proinflammatory agents. The class given is in vivo. The source says:
FIGS. 10A-10B depicts pulse-intermittent iSHP-1 design and treatment schemes. In preclinical tumor models, we have tested three pulsed treatment schemes, pulses-1, -2 and -3, with iSHP-1 given once, twice or three times consecutively (1× per day) at the beginning of each cycle, and an intermittent period of 2-9 days withholding iSHP-1 treatment between cycles. The combination modalities include, but are not limited to, TLR ligands, STING activator, RT, anti-PD-1/L1 immune checkpoint blockade (αPD-1/L1), inflammatory cytokines, chemotherapies and oncolytic viruses. These combination regimens were given together with SHP-1 inhibitor or following separate dosing schedules. Murine solid tumor models with a single tumor or multi-lesions (metastases) in syngeneic mice of different backgrounds were tested. These models were established by engrafting tumors in multiple locations, and iSHP-1 treatment began when a single tumor reaches ≥200 mm^3 in size or the total tumor burden ≥300 mm^3. […]
Throughout treatments, anti-tumoral efficacies (tumor volume changes and survival rates), adverse effects (body weight loss, proteinuria, anemia and clinical discomfort), gross organ toxicity and tissue inflammation due to toxicity, and the TME immune landscape changes were analyzed at different time points and at the terminal point. […]

Structures are written as SMILES.

For `O=C1C=CC(=O)C(c2cc(Cl)ccc2Cl)=C1` [TPI-1], the “phagocytosis of cancer cells” value in series [1] was “promotes proinflammatory-activated macrophages for phagocytosis of cancer cells”. Further, the “pSTAT-1 and pErk1/2” value in series [2] was “increased pSTAT-1 and pErk1/2”. The “treatment-induced PTP/SHP-1 activity abated” value in series [3] is “abated”. In series [4], the “CD8 T cell expansion and p15E reactivity” value was “marked expansion of CD8 T cells with significant high frequency of reactivity to tumor-specific antigen p15E”; the intratumoral macrophage phenotype entry is “proinflammatory phenotype and increased antigen presentation capacity”. Further, in series [4] (day 5), the “immune cell infiltration in TME” value is “induced neutrophil (PMN) infiltration, NK cell increases and CD8 T cell expansion”. Moreover, the “tumor elimination incl. distal lesions” value in series [5] is “effectively eliminating or repressing KPC pancreatic cancer and LLC lung cancer along with distal lesions”. Moreover, the “cytokines secreted, with SHP-1 inhibitor” value in series [6] is “induced high production of proinflammatory cytokine s while suppressing production of IL-10 and TGFβ”. Moreover, in series [7], the “organ damage, anemia, splenomegaly” value is reported as “did not exhibit serious lung or kidney damage, anemia or splenomegaly”.
